Patent US6887882B2, “Pharmaceutical compositions comprising chelidonine or derivatives thereof” (priority 2002, dated 2005)

What was measured:
[1] = biological target: T1, hKv1.5 channel (Homo sapiens, UniProt P22460); assay: Voltage-dependent block of hKv1.5 channel currents expressed in Ltk-cells; type: cell-based; conditions: 10 μM
T1 construct: expressed in transfected cells; host or cells: mouse Ltk- cells (pMSVneo vector, G418 selection)
Source text: To quantify the voltage-dependent block of chelidonine (compound 1), the relative steady state current, Ichelidonine/Icontrol was plotted as a function of membrane potential (FIG. 2). The steady-state currents were obtained at the end stage of 250 ms depolarizing pulses, while increasing the membrane voltage by 10 mV from −80 to +60 mV. The dotted line denotes the activation curve of hKv1.5 channel current expressed in Ltk-cells.

[2] = system: mouse; conditions: intravenously; cited from earlier work
[3] = biological target: T1, hKv1.5 channel; assay: Channel state-dependency of hKv1.5 block (tail currents); type: cell-based; conditions: 10 μM; tail currents at -50 mV after +50 mV pulse
Source text: We tested the channel state-dependency of hKv1.5 block by chelidonine (FIG. 3).
Under control conditions, the tail currents were rapidly deactivated.

[4] = system: rabbit atrial tissue; assay: Frequency-dependent effects on action potentials of rabbit atrial tissue (APD90); type: cell-based; conditions: 1 μM, of control APD90, n=5
Experimental: Action potentials in rabbit atrial tissue were recorded according to the method described in thesis by Kwak, et al. (A newly synthesized benzopyran derivatives, activates the cardiac ATP-sensitive K^+ channel. J Pharmacol Exp Ther 1995, 275: 807-812).
Male New Zealand white rabbits weighing about 2 kg were stunned with a blow on the head and hearts were rapidly excised and transferred to a dissection bath filled with Tyrode's solution saturated with 97% O2 and 3% CO2 gas mixture and each dissected tissue was mounted horizontally in a narrow channel of a tissue chamber and continuously superfused with the Tyrode's solution at 37° C. The action potentials were elicited by stimulating the cardiac cells with square pulses (1˜5 Hz, 1-ms duration, 20-30% above threshold voltage) by a stimulator. […] Tracings on the oscilloscope screen were photographed on a 35-mm film and also recorded on a physiograph (RS 3400, Gould, Cleveland, Ohio). APD90 was used for the comparison of action potential durations. APD90 represents the action potential duration at 90% repolarization, relative to the action potential duration at maximum 100% depolarization. Images on the oscilloscope screen were captured on Polaroid camera.
We tested whether the effect of chelidonine on action potentials of rabbit atrial myocytes are frequency-dependent or not.
The relative action potential durations were normalized to the APD90 value in the absence of chelidonine at each frequency. At the stimulus frequency of 1, 2, 3, 4 and 5 Hz, 1 μM chelidonine increased APD90 by 13.0±8.1% (n=5), 14.5±7.9% (n=5), 16.5±2.2% (n=5) 28.2±0.4% (n=5) or 33.0±0.3 1% (n=5) of the control APD90 in the absence of chelidonine at each frequency, respectively.

[5] = system: K+ channel current in human atrial myocytes; assay: Effect on the K+ current in human atrial myocytes (whole cell patch clamp); type: cell-based
Experimental: Currents in human atrial myocytes and cell lines were recorded by using the whole cell configuration of the gigaohm-seal patch clamp techniques (Kwak, et al., Phosphorylation is required for alteration of Kv1.5 K^+ channel function by the Kvbeta 1.3 subunit. J Biol Chem 1999, 274: 25355-25361). First, electrical signals were amplified with a patch clamp amplifier (Axon Instruments, Axopatch-1D, Foster, USA). Currents were digitized by a signal converter (Digidata 1200, Axon Instruments) and stored on the hard disk of a computer. The micropipette with a resistance of 1˜2MΩ (Kimax-51, 1.5=14 1.8×10 mm) for current recording, was pulled out by a 2-stage pipette puller (Narishige, PP-83). The intracellular pipette-filling solution for whole cell mode contained 100 mM KCl, 10 mM HEPES, 5 mM K4BAPTA, 5 mM K2ATP and 1 mM MgCl2 (pH 7.2). The extracellular solution contained 130 mM NaCl, 4 mM KCl, 1.8 mM CaCl2, 1 mM MgCl2, 10 mM HEPES and 10 mM glucose (pH 7.35).
Isolation of human atrial myocytes was carried out by the Wang, et al.'s method (Effects of flecainide, quinidine, and 4-aminopyridine on transient outward and ultrarapid delayed rectifier currents in human atrial myocytes. J Pharmacol Exp Ther 1995, 272: 184-196). Specimens of human right atrial appendage were obtained from the hearts of patients undergoing cardiopulmonary bypass surgery. […]

T1 sequence (P22460 whole entry): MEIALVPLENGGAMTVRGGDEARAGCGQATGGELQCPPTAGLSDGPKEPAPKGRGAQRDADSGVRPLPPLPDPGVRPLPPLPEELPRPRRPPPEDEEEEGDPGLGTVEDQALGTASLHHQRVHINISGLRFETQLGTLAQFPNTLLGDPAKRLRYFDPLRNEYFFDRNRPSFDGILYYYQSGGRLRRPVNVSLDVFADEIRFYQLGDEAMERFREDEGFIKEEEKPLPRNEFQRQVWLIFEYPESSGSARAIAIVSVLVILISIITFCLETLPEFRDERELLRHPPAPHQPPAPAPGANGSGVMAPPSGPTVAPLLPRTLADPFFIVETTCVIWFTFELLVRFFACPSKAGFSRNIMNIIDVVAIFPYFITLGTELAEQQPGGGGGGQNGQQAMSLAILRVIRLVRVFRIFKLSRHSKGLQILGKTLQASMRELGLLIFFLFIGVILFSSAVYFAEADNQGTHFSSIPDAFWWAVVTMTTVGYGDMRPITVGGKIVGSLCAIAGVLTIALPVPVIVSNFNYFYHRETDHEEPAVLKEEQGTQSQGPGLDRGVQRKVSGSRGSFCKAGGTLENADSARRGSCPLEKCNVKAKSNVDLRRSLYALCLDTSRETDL

**Q.** Which “voltage-dependence of block” value ([1]; between 0 mV and +60 mV) does the source give for `CN1Cc2c(ccc3c2OCO3)[C@@H]2[C@H]1c1cc3c(cc1C[C@@H]2O)OCO3` [Compound 1, [5bR-(5bα,6β,12bα)]-5b,6,7,12b,13, 14-hexahydro-13-methyl[1,3]benzodioxolo[5,6c]-1,3-dioxolo[4,5-i]phenanthridin-6-ol] here?
**A.** weak voltage-dependence

**Q.** And the “δ value (Woodhull equation)” value ([1]; between 0 mV and +60 mV, n=7)?
**A.** 0.16±0.01

**Q.** And the “voltage-dependence of block” value ([1]; between -30 mV and 0 mV)?
**A.** strong voltage-dependence

**Q.** What about the toxicity [2] of the same molecule?
**A.** 34.6 ± 2.44 mg/kg

**Q.** What about the “channel state-dependency of hKv1.5 block” value [3] of the same molecule?
**A.** acts as an open channel blocker

**Q.** What about the “increase of APD90” value ([4]; stimulus frequency 1 Hz) of the same molecule?
**A.** 13.0±8.1%

**Q.** And the “increase of APD90” value ([4]; stimulus frequency 2 Hz)?
**A.** 14.5±7.9%

**Q.** What about the “increase of APD90” value ([4]; stimulus frequency 3 Hz) of the same molecule?
**A.** 16.5±2.2%

**Q.** What about the “increase of APD90” value ([4]; stimulus frequency 4 Hz) of the same molecule?
**A.** 28.2±0.4%

**Q.** What about the “effect on peak amplitude of outward K+ current” value ([5]; 10 μM) of the same molecule?
**A.** decreased the peak amplitude

**Q.** And the inhibition at 10 µM ([5]; compared to control, n=7, read-out: inhibition of steady-state currents at the end of the depolarizing pulse of +50 mV)?
**A.** 41 ± 5%
